Assay results from patent publication US20210387990A1, “METHOD FOR PRODUCING DIMETHOXYBENZENE COMPOUND” (TAIHO PHARMACEUTICAL CO., LTD., priority 2018, published 2021).

Experiment: solubility in solvents
Format: physicochemical
Details: in water, highly water-soluble organic solvents, and highly fat-soluble organic solvents; free form

COc1cc(C#Cc2nn([C@H]3CCNC3)c3ncnc(N)c23)cc(OC)c1 [compound B, (S)-3-((3,5-dimethoxyphenyl)ethynyl)-1-(pyrrolidin-3-yl)-1H-pyrazolo[3,4-d]pyrimidin-4-amine]
solubility: easily soluble
